Data reported in US10493035B2, “Tablets comprising 2-hydroxy-6-((2-(1-isopropyl-1H-pyrazol-5-yl)pyridin-3-yl)methoxy)benzaldehyde” (Global Blood Therapeutics, Inc., priority 2016, dated 2019).

Columns and labels:
[1] = Physicochemical and biopharmaceutical properties of Compound 1 and its crystal forms
Method: Compound 1 is a BCS II compound, where its solubility is the primary biopharmaceutical factor limiting absorption. Compound 1 exists in one form as an ansolvate crystalline form characterized by at least two, three or four X-ray powder diffraction peaks (Cu Kα radiation) selected from 13.37°, 14.37°, 19.95° and 23.92° 2θ (each ±0.2° 2θ) (see, e.g., PCT application Publication No. WO 2015/120133 A1, incorporated herein by reference in its entirety and for all purposes). This form can hereinafter also be referred to as Form II. The physicochemical properties of Compound 1, including its Form II, are not as conducive (compared to other drug substances for formulation) to making a high dosage form of Compound 1. […] The bulk density of Form II of Compound 1 is considered low and its flowability considered poor. Upon milling, the flowability decreases. […] Form II of Compound 1 is also prone to sticking to steel surfaces, such as in processing equipment for tablet manufacture.
In addition, another ansolvate crystalline form of Compound 1, referred to as Form N, is known. Form N has an enantiotropic relationship with Form II, with a transition temperature approximately in the range 30-40° C. Thus, under temperatures (e.g. storage) below 40° C., e.g., at 25° C., Compound 1 is more thermodynamically stable as Form II and at temperatures above 40° C., e.g., at 50° C., Compound 1 is more thermodynamically stable as Form N. To design tablets containing Compound 1, the above physicochemical property limitations of Compound 1 and the high dose requirements need to be accommodated while ensuring that the tablets have dissolution properties that lead to a therapeutic effect.

[2] = Compression profile of neat Form II API (hydraulic press, 200 mg compacts); assay type: physicochemical; conditions: for Tablet Hardness / Tablet Thickness: neat API 200 mg
Method: The compressibility of crystalline Form II of Compound 1 (“API”) was determined by compressing neat unformulated API at 200 mg scale compressed in a hydraulic press using 5/16th inch diameter, standard concave round tooling. The resulting tablets were measured for thickness using a digital caliper gauge, and for tensile strength using a tablet hardness tester. […] Lots 1a and 2 were directly from the API manufacturing process, but from different API suppliers. Lot 1b was prepared by taking Lot 1a and subjecting it to hammer milling to cause reduction of particle size.

[3] = compression force 2000 lbf, listed as 1a
[4] = compression force 3000 lbf, listed as 1a
[5] = compression force 4000 lbf, listed as 1a
[6] = compression force 2000 lbf, listed as 1b
[7] = compression force 3000 lbf, listed as 1b
[8] = compression force 4000 lbf, listed as 1b
[9] = compression force 2000 lbf, listed as 2
[10] = compression force 3000 lbf, listed as 2
[11] = compression force 4000 lbf, listed as 2

For `CC(C)n1nccc1-c1ncccc1COc1cccc(O)c1C=O` [Compound 1, 2-hydroxy-6-((2-(1-isopropyl-1H-pyrazol-5-yl)pyridin-3-yl)methoxy)benzaldehyde], the BCS class [1] was “BCS II”.

In the case of `CC(C)n1nccc1-c1ncccc1COc1cccc(O)c1C=O` [Form II of Compound 1, 2-hydroxy-6-((2-(1-isopropyl-1H-pyrazol-5-yl)pyridin-3-yl)methoxy)benzaldehyde], the “Lipophilicity (in words)” value [1] is reported as “lipophilic”, the “Water solubility (in words)” value [1] is reported as “poorly water soluble” and the “Compressibility (in words)” value ([2]; neat API) is reported as “relatively incompressible solid”.

For `CC(C)n1nccc1-c1ncccc1COc1cccc(O)c1C=O` [Form N, 2-hydroxy-6-((2-(1-isopropyl-1H-pyrazol-5-yl)pyridin-3-yl)methoxy)benzaldehyde], the “Transition temperature of the enantiotropic relationship with Form II” value [1] was 30-40 °C.

In the case of `CC(C)n1nccc1-c1ncccc1COc1cccc(O)c1C=O` [Lot 1a, 2-hydroxy-6-((2-(1-isopropyl-1H-pyrazol-5-yl)pyridin-3-yl)methoxy)benzaldehyde], the “Tablet Hardness” value [2, 3] is reported as 1.8 kp, the “Tablet Thickness” value [2, 3] is reported as 4.50 mm and the “Tablet Hardness” value [2, 4] is reported as 1.5 kp. For the same compound, the “Tablet Thickness” value [2, 4] was 4.34 mm, the “Tablet Hardness” value [2, 5] was 1.0 kp and the “Tablet Thickness” value [2, 5] was 4.35 mm.

In the case of `CC(C)n1nccc1-c1ncccc1COc1cccc(O)c1C=O` [Lot 1b, 2-hydroxy-6-((2-(1-isopropyl-1H-pyrazol-5-yl)pyridin-3-yl)methoxy)benzaldehyde], the “Tablet Hardness” value [2, 6] is reported as 2.4 kp, the “Tablet Thickness” value [2, 6] is reported as 4.55 mm and the “Tablet Hardness” value [2, 7] is reported as 1.2 kp. The “Tablet Thickness” value [2, 7] was 4.32 mm, the “Tablet Hardness” value [2, 8] was 1.5 kp and the “Tablet Thickness” value [2, 8] was 4.43 mm.

For `CC(C)n1nccc1-c1ncccc1COc1cccc(O)c1C=O` [Lot 2, 2-hydroxy-6-((2-(1-isopropyl-1H-pyrazol-5-yl)pyridin-3-yl)methoxy)benzaldehyde], the “Tablet Hardness” value [2, 9] was 9.0 kp, the “Tablet Thickness” value [2, 9] was 4.50 mm and the “Tablet Hardness” value [2, 10] was 3.7 kp. The “Tablet Thickness” value [2, 10] was 4.27 mm, the “Tablet Hardness” value [2, 11] was 3.4 kp and the “Tablet Thickness” value [2, 11] was 4.31 mm.
